Where a chain is given by its changes, count along the chain named.
What was measured:
Assay in all cases: E. coli hemG growth inhibition by herbicide, AtPPO1 variant
Type in all cases: cell-based
Details in all cases: read-out: percentage growth inhibition
AtPPO1 Y361T = biological target: T1, AtPPO1 Y361T (Arabidopsis thaliana, UniProt P55826, Y361T)
T1 construct: expressed in transfected cells; host or cells: E. coli BL21(DE3) hemG (pET24a, T7 promoter)
T1 sequence (P55826 35-537 Y361T): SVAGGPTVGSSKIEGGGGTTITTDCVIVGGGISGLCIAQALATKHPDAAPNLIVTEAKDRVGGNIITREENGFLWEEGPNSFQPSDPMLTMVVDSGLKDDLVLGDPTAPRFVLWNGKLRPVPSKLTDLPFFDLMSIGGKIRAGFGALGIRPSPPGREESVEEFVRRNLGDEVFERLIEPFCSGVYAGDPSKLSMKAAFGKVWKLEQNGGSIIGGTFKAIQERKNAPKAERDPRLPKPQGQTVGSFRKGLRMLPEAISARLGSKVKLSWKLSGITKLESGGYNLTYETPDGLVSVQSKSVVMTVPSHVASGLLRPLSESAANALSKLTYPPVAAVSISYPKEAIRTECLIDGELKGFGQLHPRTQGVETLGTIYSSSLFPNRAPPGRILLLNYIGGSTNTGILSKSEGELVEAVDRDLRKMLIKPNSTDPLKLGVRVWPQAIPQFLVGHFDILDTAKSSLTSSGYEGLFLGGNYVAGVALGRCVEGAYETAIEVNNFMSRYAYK
Description: (§1) A pET24a plasmid containing a DNA sequence encoding a variant of PPO1 derived from Arabidopsis thaliana (AtPPO1), codon-optimised for expression in E. coli and under control of a T7 promoter, was synthesised by Twist Bioscience (SEQ ID NO:3). This plasmid was used as the basis of a Site Saturation Variant Library (SSVL) that substituted the codons at 352 amino acid positions for codons that encoded one of the other 19 amino acids, or removed the codon altogether, resulting in a translation product with a deletion at that position.
(§2) The SSVL was batch-transformed by electroporation into an E. coli BL21(DE3) hemG strain with the hemG gene replaced by CmR conferring resistance to chloramphenicol and spread onto LA supplemented with 50 μg/mL kanamycin, 25 μg/mL chloramphenicol and 20 μg/mL hematin. Each batch consisted of all the plasmids that contained variants at two sites.
(§3) Colonies from batch transformations were inoculated into 500 μL of Terrific broth supplemented with 50 μg/mL kanamycin, 25 μg/mL chloramphenicol and 20 μg/mL hematin in 96-deepwell blocks. Cultures were grown for 24 hours at 37° C. with shaking at 250 rpm.
(§4) Overnight cultures were centrifuged and the cell pellets resuspended with 500 μL of Terrific broth. The resuspended cultures were used at a ratio of 1:100 to inoculate a fresh 96-deepwell block containing 500 μL of Terrific broth supplemented with 0.1 mM IPTG, 50 μg/mL kanamycin, 25 μg/mL chloramphenicol and 6.25 ppm of herbicide […] or E or 0.78 ppm herbicide B or DMSO. Assay cultures were grown for 24 hours at 37° C. with shaking at 250 rpm with the OD600 being measured at 24 hours post inoculation. Strains that grew in both DMSO and herbicide were determined to be herbicide tolerant with the percentage of growth inhibition being calculated as below: […]

AtPPO1 Y361D = biological target: T2, AtPPO1 Y361D (Arabidopsis thaliana, UniProt P55826, Y361D)
T2 construct: expressed in transfected cells; host or cells: E. coli BL21(DE3) hemG (pET24a, T7 promoter)
T2 sequence (P55826 35-537 Y361D): T1 sequence (P55826 35-537 Y361T) with T327D
Description: as §1, §2, §3, §4

AtPPO1 V218K = biological target: T3, AtPPO1 V218K (Arabidopsis thaliana, UniProt P55826, V218K)
T3 construct: expressed in transfected cells; host or cells: E. coli BL21(DE3) hemG (hemG replaced by CmR), pET24a plasmid
T3 sequence (P55826 35-537 V218K): T1 sequence (P55826 35-537 Y361T) with V184K, T327Y
Description: as §1, §2, §3, §4

AtPPO1 E111D = biological target: T4, AtPPO1 E111D (Arabidopsis thaliana, UniProt P55826, E111D)
T4 construct: expressed in transfected cells; host or cells: E. coli BL21(DE3) hemG (hemG replaced by CmR), pET24a plasmid
T4 sequence (P55826 35-537 E111D): T1 sequence (P55826 35-537 Y361T) with E77D, T327Y
Description: as §1, §2, §3, §4

**Q.** How did the inhibition at 0.78 ppm (AtPPO1 Y361T) turn out when `C#CCN1C(=O)C(F)(F)Oc2cc(F)c(-n3c(=O)n(C)c(=S)n(C)c3=O)cc21` [Herbicide B, trifludimoxazin] was run?
**A.** Its inhibition at 0.78 ppm is 37%.

**Q.** And the inhibition at 0.78 ppm (AtPPO1 Y361D)?
**A.** The inhibition at 0.78 ppm was 20%.

**Q.** And the inhibition at 0.78 ppm (AtPPO1 V218K)?
**A.** Its inhibition at 0.78 ppm is 38%.

**Q.** And the inhibition at 0.78 ppm (AtPPO1 E111D)?
**A.** Its inhibition at 0.78 ppm is 23%.

**Q.** For `CCOC(=O)[C@]1(C)CC(c2cc(-n3c(=O)n(C)c(=S)n(C)c3=O)c(F)cc2Cl)=NO1` [Herbicide D, ethyl (5S)-3-[2-chloro-5-(3,5-dimethyl-2,6-dioxo-4-thioxo-1,3,5-triazinan-1-yl)-4-fluoro-phenyl]-5-methyl-4H-isoxazole-5-carboxylate], which inhibition at 6.25 ppm (AtPPO1 Y361T) is on record?
**A.** Its inhibition at 6.25 ppm is 44%.

**Q.** And the inhibition at 6.25 ppm (AtPPO1 Y361D)?
**A.** Its inhibition at 6.25 ppm is 33%.

**Q.** What about the inhibition at 6.25 ppm (AtPPO1 V218K) of the same compound?
**A.** The inhibition at 6.25 ppm was 31%.

**Q.** What about the inhibition at 6.25 ppm (AtPPO1 E111D) of the same compound?
**A.** The inhibition at 6.25 ppm was 30%.

**Q.** `CC(C)N(C)S(=O)(=O)NC(=O)c1cc(-n2c(=O)cc(C(F)(F)F)n(C)c2=O)c(F)cc1Cl` [Herbicide E, saflufenacil] was tested. Which inhibition at 6.25 ppm (AtPPO1 Y361T) did it give?
**A.** Its inhibition at 6.25 ppm is 37%.

**Q.** And the inhibition at 6.25 ppm (AtPPO1 Y361D)?
**A.** The inhibition at 6.25 ppm was 14%.

**Q.** And the inhibition at 6.25 ppm (AtPPO1 V218K)?
**A.** The inhibition at 6.25 ppm was 50%.

**Q.** And the inhibition at 6.25 ppm (AtPPO1 E111D)?
**A.** Its inhibition at 6.25 ppm is 69%.

— US20260297542A1, “HERBICIDE RESISTANT PLANTS” (SYNGENTA CROP PROTECTION AG, priority 2023, published 2026)
